Laboratory results reported in US20250213499A1, “COMPOSITION FOR PREVENTING OR TREATING ISCHEMIC STROKE, CONTAINING SOBREROL AS ACTIVE INGREDIENT” (NEUROLMED CO., LTD, priority 2020, published 2025).

Test system: focal cerebral ischemia induced by middle cerebral artery occlusion and reperfusion (MCAO/R)
Experiment: Rodent cerebral ischemia model (MCAO/R): volume of cerebral infarction area by TTC staining
Type: in vivo, mice (C57/BL6)
Details: for cerebral infarction volume due to focal cerebral ischemia (FIG. 3): TTC-stained brain slices, ImageJ, *** p<0.001
Protocol: 12- to 13-week-old male mice (C57/BL6) were used in the experiment. The mice were divided into four groups of five each (three in the Sham group): Sham (surgical control group), stroke surgery group (Stroke), stroke+sobrerol-L (administration of 10 mg/kg of SOB-L), and stroke+sobrerol-H (administration of 40 mg/kg of SOB-H). According to the schematic view shown in FIG. 1, middle cerebral artery occlusion and reperfusion operation (MCAO/R) was performed to induce focal cerebral ischemia. After MCAO/R surgery, sobrerol was orally administered at concentrations of 10 mg/kg and 40 mg/kg. In the Sham and Stroke control groups, saline was orally administered. Neurological deficit tests were performed 22-23 hours after MCAO/R (n=5). After re-anesthesia, cardiac reperfusion in mice was carried out with PBS solution, and the brains were immediately removed and stained with 2% TTC (2,3,5-triphenyl-tetrazolium chloride) solution. TTC-stained slices were obtained from the mice in four groups, particularly Sham (surgical control group), stroke surgery group (Stroke), stroke+sobrerol-L (administration of 10 mg/kg of SOB-L), and stroke+sobrerol-H (administration of 40 mg/kg of SOB-H), and the volume of the cerebral infarction area was measured. Quantification was measured using ImageJ.

Q: With `CC1=CCC(C(C)(C)O)CC1O` (centres unmarked) [sobrerol, 5-(2-hydroxypropan-2-yl)-2-methylcyclohex-2-en-1-ol] as the molecule, how does the “cerebral infarction volume due to focal cerebral ischemia (FIG. 3)” value (10 mg/kg oral after MCAO/R (sobrerol-L)) read?
A: The value was “significantly reduced”.

Q: And the “damage status of ischemic brain tissue in TTC-stained slices (FIG. 2)” value (40 mg/kg oral (stroke+sobrerol-H) compared to sobrerol-L, Stroke and Sham groups, red area = undamaged, white = infarction)?
A: Its value is “undamaged”.

Q: What about the “cerebral infarction volume due to focal cerebral ischemia (FIG. 3)” value (40 mg/kg oral after MCAO/R (sobrerol-H)) of the same molecule?
A: The value was “significantly reduced”.

Q: And the “damage status of ischemic brain tissue in TTC-stained slices (FIG. 2)” value (group orally administered sobrerol compared to the other groups, dose not given)?
A: Its value is “red undamaged area without cerebral infarction area”.

Q: And the infarction size (stroke animal model, compared to the group not administered a stroke drug, dose not stated)?
A: Its infarction size is “decrease”.
